pIC50: −log10 of the molar value.
How the values were obtained:
[1] = target: Matrix metalloproteinase-15 (Homo sapiens, UniProt P51511); experiment: Inhibition of matrix metalloprotease-15 (MMP-15)
[2] = target: Matrix metalloproteinase-9 (Homo sapiens, UniProt P14780); experiment: Inhibition of matrix metalloprotease-9 (MMP-9)
[3] = target: Matrix metalloproteinase-16 (Homo sapiens, UniProt P51512); experiment: Inhibition of matrix metalloprotease-16 (MMP-16)
[4] = target: T1, Interstitial collagenase (Homo sapiens, UniProt P03956); experiment: Inhibition of matrix metalloprotease-1 (MMP-1)
T1 sequence (P03956 whole entry): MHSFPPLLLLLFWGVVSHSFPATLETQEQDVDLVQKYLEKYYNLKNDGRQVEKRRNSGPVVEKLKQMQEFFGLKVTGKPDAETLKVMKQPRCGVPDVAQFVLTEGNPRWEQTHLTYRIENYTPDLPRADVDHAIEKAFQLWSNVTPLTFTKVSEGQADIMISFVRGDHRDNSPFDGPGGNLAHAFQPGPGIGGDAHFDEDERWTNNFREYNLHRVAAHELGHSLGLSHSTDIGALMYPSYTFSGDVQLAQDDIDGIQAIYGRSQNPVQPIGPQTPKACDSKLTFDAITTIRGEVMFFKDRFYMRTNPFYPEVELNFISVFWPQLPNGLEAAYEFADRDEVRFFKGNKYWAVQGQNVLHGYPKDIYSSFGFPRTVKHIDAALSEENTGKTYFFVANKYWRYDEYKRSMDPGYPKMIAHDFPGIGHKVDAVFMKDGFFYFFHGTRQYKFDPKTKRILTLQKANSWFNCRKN

[5] = target: T2, Matrix metalloproteinase-26 (Homo sapiens, UniProt Q9NRE1); experiment: Inhibition of matrix metalloprotease-26 (MMP-26)
T2 sequence (Q9NRE1 whole entry): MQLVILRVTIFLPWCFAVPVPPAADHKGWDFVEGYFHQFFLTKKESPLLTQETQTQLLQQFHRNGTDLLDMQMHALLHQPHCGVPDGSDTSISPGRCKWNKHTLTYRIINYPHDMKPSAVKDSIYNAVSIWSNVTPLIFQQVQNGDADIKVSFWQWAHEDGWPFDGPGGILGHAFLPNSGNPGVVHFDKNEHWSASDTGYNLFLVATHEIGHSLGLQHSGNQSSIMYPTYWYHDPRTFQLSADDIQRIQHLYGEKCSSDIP

[6] = target: 72 kDa type IV collagenase (Homo sapiens, UniProt P08253); experiment: Inhibition of matrix metalloprotease-2 (MMP-2)
[7] = target: Macrophage metalloelastase (Homo sapiens, UniProt P39900); experiment: Inhibition of matrix metalloprotease-12 (MMP-12)
[8] = target: Matrix metalloproteinase-14 (Homo sapiens, UniProt P50281); experiment: Inhibition of matrix metalloprotease-14 (MMP-14)
[9] = target: T3, Matrilysin (Homo sapiens, UniProt P09237)
T3 sequence (P09237 whole entry): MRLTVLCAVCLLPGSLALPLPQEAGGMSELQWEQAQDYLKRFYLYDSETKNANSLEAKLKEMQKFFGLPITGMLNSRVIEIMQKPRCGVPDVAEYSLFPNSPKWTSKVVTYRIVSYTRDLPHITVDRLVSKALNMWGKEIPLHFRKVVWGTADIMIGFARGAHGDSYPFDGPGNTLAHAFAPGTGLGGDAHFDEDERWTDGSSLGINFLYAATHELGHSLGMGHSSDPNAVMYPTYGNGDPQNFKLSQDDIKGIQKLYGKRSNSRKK

[10] = target: T3, Matrilysin; experiment: Inhibition of matrix metalloprotease-7 (MMP-7)
[11] = target: T2, Matrix metalloproteinase-26; experiment: Inhibition of matrix metalloprotease-26 (MMP-26) (inactive up to 50 uM)
[12] = target: T1, Interstitial collagenase

Chain of Matrix metalloproteinase-16 (P51512 whole entry): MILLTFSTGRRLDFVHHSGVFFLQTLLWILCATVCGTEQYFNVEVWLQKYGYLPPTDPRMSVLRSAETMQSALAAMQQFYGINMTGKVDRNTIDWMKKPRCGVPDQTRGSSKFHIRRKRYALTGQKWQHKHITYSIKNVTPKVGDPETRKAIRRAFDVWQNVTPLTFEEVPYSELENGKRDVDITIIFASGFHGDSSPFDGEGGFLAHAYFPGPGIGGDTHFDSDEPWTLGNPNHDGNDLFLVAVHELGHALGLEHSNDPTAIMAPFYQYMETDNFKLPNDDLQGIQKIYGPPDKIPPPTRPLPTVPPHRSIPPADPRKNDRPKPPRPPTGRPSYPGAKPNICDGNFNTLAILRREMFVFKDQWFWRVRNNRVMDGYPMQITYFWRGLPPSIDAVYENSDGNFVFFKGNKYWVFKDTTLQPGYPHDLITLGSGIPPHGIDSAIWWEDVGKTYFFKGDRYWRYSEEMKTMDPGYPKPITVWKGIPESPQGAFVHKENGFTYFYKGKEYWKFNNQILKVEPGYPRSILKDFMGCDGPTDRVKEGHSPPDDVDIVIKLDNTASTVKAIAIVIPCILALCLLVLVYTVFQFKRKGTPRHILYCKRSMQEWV
Chain of Macrophage metalloelastase (P39900 whole entry): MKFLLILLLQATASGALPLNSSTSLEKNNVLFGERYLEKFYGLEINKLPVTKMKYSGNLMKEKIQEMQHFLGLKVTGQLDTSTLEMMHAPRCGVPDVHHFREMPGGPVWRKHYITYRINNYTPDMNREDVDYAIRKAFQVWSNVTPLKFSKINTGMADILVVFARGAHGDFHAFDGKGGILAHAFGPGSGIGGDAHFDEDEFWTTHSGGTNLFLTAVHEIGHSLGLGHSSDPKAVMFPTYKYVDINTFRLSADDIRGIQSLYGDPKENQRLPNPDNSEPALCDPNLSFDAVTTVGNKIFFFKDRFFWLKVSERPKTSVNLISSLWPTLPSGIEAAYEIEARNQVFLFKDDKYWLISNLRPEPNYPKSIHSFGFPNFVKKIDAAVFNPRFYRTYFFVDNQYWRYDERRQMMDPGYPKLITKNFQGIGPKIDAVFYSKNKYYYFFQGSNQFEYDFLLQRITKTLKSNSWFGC
Chain of 72 kDa type IV collagenase (P08253 whole entry): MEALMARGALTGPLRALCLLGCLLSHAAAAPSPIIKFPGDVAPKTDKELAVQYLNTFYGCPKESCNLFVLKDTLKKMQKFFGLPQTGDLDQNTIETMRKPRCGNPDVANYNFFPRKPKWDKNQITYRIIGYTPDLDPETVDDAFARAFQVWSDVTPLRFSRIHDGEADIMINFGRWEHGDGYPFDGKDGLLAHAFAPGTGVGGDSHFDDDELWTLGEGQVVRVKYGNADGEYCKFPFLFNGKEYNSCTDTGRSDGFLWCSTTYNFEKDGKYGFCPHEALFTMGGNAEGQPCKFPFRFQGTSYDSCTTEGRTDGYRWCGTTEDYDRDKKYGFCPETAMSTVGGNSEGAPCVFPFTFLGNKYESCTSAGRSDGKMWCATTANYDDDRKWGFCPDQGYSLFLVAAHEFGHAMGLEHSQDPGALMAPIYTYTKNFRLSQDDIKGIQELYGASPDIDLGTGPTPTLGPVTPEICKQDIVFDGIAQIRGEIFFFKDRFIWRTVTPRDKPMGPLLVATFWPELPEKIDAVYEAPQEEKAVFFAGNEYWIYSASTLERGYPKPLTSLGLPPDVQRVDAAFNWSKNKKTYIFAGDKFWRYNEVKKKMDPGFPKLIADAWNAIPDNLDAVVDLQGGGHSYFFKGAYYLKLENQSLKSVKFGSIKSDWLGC
Chain of Matrix metalloproteinase-9 (P14780 whole entry): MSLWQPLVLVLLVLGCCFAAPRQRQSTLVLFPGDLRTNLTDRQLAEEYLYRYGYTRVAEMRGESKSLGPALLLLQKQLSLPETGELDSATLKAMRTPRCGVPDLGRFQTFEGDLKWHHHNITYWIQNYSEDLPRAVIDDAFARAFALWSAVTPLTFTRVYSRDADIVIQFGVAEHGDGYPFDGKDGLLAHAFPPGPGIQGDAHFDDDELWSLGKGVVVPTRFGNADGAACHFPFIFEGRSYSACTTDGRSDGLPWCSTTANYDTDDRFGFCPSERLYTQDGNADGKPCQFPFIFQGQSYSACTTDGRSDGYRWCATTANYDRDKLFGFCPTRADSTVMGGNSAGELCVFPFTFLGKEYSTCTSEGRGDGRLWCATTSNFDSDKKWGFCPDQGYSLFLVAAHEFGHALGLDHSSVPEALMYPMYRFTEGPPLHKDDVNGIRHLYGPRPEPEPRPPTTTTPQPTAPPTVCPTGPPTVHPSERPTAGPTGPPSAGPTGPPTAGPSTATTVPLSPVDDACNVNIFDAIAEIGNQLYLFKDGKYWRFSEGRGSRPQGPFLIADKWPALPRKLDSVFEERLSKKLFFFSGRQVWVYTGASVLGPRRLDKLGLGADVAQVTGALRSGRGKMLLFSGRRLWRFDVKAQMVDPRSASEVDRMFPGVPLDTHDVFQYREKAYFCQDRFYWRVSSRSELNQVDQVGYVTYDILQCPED
Chain of Matrix metalloproteinase-15 (P51511 whole entry): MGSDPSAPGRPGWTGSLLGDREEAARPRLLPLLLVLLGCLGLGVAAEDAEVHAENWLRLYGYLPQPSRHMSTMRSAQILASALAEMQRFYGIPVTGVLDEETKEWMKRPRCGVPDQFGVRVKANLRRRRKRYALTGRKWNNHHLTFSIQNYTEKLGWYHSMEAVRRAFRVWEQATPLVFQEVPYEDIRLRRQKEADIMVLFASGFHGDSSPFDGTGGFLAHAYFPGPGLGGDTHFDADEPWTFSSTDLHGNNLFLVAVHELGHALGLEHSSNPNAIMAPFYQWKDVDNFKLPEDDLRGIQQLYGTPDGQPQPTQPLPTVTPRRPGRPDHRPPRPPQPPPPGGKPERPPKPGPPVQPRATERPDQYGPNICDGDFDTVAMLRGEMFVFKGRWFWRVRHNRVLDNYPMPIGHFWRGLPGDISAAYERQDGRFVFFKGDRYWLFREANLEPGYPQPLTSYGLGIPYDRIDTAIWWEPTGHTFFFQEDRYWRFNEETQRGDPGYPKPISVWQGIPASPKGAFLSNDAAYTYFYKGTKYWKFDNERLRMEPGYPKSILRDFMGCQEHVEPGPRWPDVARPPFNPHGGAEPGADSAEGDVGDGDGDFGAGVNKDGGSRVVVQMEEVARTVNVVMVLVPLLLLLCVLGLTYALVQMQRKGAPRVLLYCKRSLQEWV

Row | SMILES | pIC50 [1] | pIC50 [2] | pIC50 [3] | pIC50 [4] | pIC50 [5] | pIC50 [6] | pIC50 [7] | pIC50 [8] | IC50 [9] | pIC50 [10] | IC50 [11] | IC50 [12]
1 | O=C(NO)C1c2ccc(O)cc2CCN1S(=O)(=O)c1ccccc1 (configuration not stated) | 6.66 | 6.47 | 6.74 | 5.20 | 6.07 | 6.37 | 6.38 | 5.96 | Not Active | – | – | –
2 | Cc1ccc(S(=O)(=O)N2CCc3cc(OCc4ccccc4)ccc3C2C(=O)NO)cc1 (configuration not stated) | 7.36 | 6.89 | 7.25 | 6.34 | 5.69 | 7.48 | 7.14 | 7.21 | – | 4.92 | – | –
3 | O=C(NO)C1c2ccc(O)cc2CCN1S(=O)(=O)c1ccc([N+](=O)[O-])cc1 (configuration not stated) | 6.90 | 6.59 | 6.75 | 7.39 | 6.10 | 7.12 | 7.23 | 6.28 | – | 4.67 | – | –
4 | O=C(NO)C1c2ccc(OCc3ccccc3)cc2CCN1S(=O)(=O)c1cc(Cl)ccc1Cl (configuration not stated) | 5.14 | 5.51 | 5.33 | – | – | 5.96 | 6.03 | 4.68 | Not Active | – | Not Active | Not Active
5 | O=C(NO)C1c2ccc(OCc3ccccc3)cc2CCN1S(=O)(=O)c1ccccc1 (configuration not stated) | 7.77 | 7.46 | 7.46 | 6.34 | 5.84 | 7.62 | 7.24 | 7.41 | – | 5.15 | – | –
6 | Cc1ccc(S(=O)(=O)N2CCc3cc(O)ccc3C2C(=O)NO)cc1 (configuration not stated) | 7.72 | 7.40 | 7.68 | 6.82 | 7.01 | 7.74 | 7.54 | 7.28 | – | 4.98 | – | –
7 | COc1cc2c(cc1O)CCN(S(=O)(=O)c1ccccc1)C2C(=O)NO (configuration not stated) | 7.54 | 7.00 | 7.40 | 6.23 | 6.84 | 7.57 | 7.19 | 6.06 | – | 4.97 | – | –
8 | COc1ccc(S(=O)(=O)N2CCc3cc(O)c(OC)cc3C2C(=O)NO)cc1 (configuration not stated) | 8.22 | 7.34 | 7.80 | 6.91 | 7.07 | 7.59 | 7.70 | 7.17 | – | 5.50 | – | –
9 | Nc1ccc(S(=O)(=O)N2CCc3cc(O)ccc3C2C(=O)NO)cc1 (configuration not stated) | 6.41 | 6.61 | 6.69 | 4.88 | 6.31 | 6.82 | 6.72 | 6.08 | Not Active | – | – | –
10 | COc1ccc(S(=O)(=O)N2CCc3cc(O)ccc3C2C(=O)NO)cc1 (configuration not stated) | 6.21 | 5.39 | 5.78 | 4.82 | 5.12 | 6.14 | 5.11 | 5.51 | Not Active | – | – | –
11 | COc1ccc(S(=O)(=O)N2CCc3cc(OCc4ccccc4)ccc3C2C(=O)NO)cc1 (configuration not stated) | 8.40 | 7.52 | 7.66 | 7.06 | 6.13 | 7.80 | 7.24 | 7.47 | – | 5.62 | – | –
12 | O=C(NO)C1c2ccc(O)cc2CCN1S(=O)(=O)c1cc(Cl)ccc1Cl (configuration not stated) | 5.75 | 5.73 | 5.74 | – | 5.10 | 6.07 | 6.77 | 5.34 | – | 4.67 | – | Not Active
13 | CNC(=O)[C@H](Cc1c[nH]c2ccccc12)NC(=O)[C@@H](CC(=O)NO)CC(C)C [ILOMASTAT] | – | – | 8.10 | – | 7.77 | – | 7.89 | 7.64 | – | – | – | –
